Columns and labels:
[1] = system: PPAR-[Gamma]:SRC-1 complexes; experiment: PPAR-[Gamma]:SRC-1 fluorescence protein-fragment complementation assay (PCA), drug treatment; assay type: cell-based, human; conditions: HEK293 cells; for effect on PPAR-[Gamma]:SRC-1 complex: 10 micromolar PP3 or 1 micromolar PD 153035 for 6.5 hours prior to rosiglitazone for 1.5 hours
Source text: Reporter fragments for PCA were generated by oligonucleotide synthesis (Blue Heron Biotechnology, Bothell, Wash.). First, oligonucleotides coding for polypeptide fragments YFP[1]and YFP[2] […] Next, PCR mutagenesis was used to generate the mutant fragments IFP[1] and IFP[2]. […] The YFP[1], YFP[2], IFP[1] and IFP[2] fragments were amplified by PCR to incorporate restriction sites and a linker sequence, described below, in configurations that would allow fusion of a gene of interest to either the 5′- or 3′-end of each reporter fragment. […] Additionally, these vectors still retain the SV40 origin, allowing for episomal expression in cell lines expressing the SV40 large T antigen (e.g. HEK293T, Jurkat or COS).
Recombinants in the host strains DH5-alpha (Invitrogen, Carlsbad, Calif.) or XL1 Blue MR (Stratagene, La Jolla, Calif.) were screened by colony PCR, and clones containing inserts of the correct size were subjected to end sequencing to confirm the presence of the gene of interest and in-frame fusion to the appropriate reporter fragment. A subset of fusion constructs were selected for full-insert sequencing by primer walking. DNAs were isolated using Qiagen MaxiPrep kits (Qiagen, Chatsworth, Calif.). PCR was used to assess the integrity of each fusion construct, by combining the appropriate gene-specific primer with a reporter-specific primer to confirm that the correct gene-fusion was present and of the correct size with no internal deletions.
HEK293 cells were maintained in MEM alpha medium (Invitrogen) supplemented with 10% FBS (Gemini Bio-Products), 1% penicillin, and 1% streptomycin, and grown in a 37° C. incubator equilibrated to 5% CO2.

Src family kinases = conditions: cited from earlier work
Hck = Hck (Homo sapiens, UniProt P08631); conditions: cited from earlier work
Hck, sequence (P08631 whole entry, species assumed): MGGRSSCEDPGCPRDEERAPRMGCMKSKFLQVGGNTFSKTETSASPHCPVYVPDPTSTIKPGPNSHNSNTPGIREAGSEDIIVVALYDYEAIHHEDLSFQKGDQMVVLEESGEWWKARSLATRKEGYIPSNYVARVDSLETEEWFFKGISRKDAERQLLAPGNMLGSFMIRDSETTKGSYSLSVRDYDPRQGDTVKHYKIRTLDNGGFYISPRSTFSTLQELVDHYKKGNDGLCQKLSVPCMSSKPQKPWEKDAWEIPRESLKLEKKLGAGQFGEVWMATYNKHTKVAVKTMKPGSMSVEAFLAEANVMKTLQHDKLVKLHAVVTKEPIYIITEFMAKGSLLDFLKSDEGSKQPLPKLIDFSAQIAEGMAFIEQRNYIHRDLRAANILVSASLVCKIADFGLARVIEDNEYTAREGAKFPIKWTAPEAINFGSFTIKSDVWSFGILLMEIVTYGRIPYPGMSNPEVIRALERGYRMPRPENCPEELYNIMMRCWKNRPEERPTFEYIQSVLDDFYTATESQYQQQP

human T cells = conditions: read-out: IC50 anti-CD3-stimulated tyrosine phosphorylation of human T cells; cited from earlier work

Question: Which “effect on PPAR-[Gamma]:SRC-1 complex” value [1] does the source give for Nc1ncnc2c1cnn2-c1ccccc1 [PP3, 4-Amino-7-phenylpyrazol[3,4-d]pyrimidine] here?
Answer: no effect

Question: What about the “activity against Src family kinases” value (Src family kinases) of the same compound?
Answer: inactive

Question: Which IC50 (Hck) does the source give for “4-amino-5-(4-chlorophenyl)-7-(t-butyl)pyrazolo[3,4-d]pyrimidine [PP2]” here?
Answer: 5 nM

Question: And the IC50 (human T cells)?
Answer: 600 nM

Question: With COc1cc2ncnc(Nc3cccc(Br)c3)c2cc1OC [PD153035, 4-[(3-Bromophenyl)amino]-6,7-dimethoxyquinazoline] as the compound, how does the “effect on PPAR-[Gamma]:SRC-1 complex” value [1] read?
Answer: no effect

Question: With CN(CCOc1ccc(CC2SC(=O)NC2=O)cc1)c1ccccn1 (stereo not drawn) [rosiglitazone] as the compound, how does the “increase of fluorescence intensity of the PPAR-[Gamma]:SRC-1 PCA” value ([1]; 15 micromolar rosiglitazone for 90 minutes vs unstimulated) read?
Answer: 6 fold
